SMILES strings stand for the structures.

The target in test [1] is Cyclin-dependent kinase 9 (Homo sapiens, UniProt P50750).
Test [2] addresses Serine/threonine-protein kinase pim-1 (Homo sapiens, UniProt P11309). In words: Inhibition of PIM1 (unknown origin).

Cyclin-dependent kinase 9, sequence (P50750 whole entry): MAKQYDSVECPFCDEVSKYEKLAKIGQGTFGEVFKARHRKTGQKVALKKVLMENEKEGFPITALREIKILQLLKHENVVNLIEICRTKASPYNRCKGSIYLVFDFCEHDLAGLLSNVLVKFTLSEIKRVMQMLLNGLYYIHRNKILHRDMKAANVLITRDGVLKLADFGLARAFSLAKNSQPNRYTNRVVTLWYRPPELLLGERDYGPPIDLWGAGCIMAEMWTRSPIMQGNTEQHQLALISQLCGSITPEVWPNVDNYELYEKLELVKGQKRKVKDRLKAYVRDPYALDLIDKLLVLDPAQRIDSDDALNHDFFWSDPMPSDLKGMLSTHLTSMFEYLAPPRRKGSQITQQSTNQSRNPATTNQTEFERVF
Serine/threonine-protein kinase pim-1, sequence (P11309 whole entry): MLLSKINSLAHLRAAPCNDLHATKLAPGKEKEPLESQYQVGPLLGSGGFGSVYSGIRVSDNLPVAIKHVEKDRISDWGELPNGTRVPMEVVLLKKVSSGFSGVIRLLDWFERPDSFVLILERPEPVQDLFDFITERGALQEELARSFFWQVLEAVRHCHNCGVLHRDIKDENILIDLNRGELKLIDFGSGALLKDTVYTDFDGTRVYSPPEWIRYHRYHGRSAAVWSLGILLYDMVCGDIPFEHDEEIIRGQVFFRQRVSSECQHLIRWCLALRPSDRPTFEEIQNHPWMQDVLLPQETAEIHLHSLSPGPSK

On to `NC(=O)c1cc(-c2ccnc(N)n2)[nH]c1-c1ccc(Cl)cc1Cl`, for which, in test [1], the IC50 (in general, the concentration that gives 50% inhibition) was 0.01 µM.

`Cc1n[nH]c2ccc(-c3cccnc3)cc12`: the IC50 in test [1] is 0.631 µM.

Compound `CN1CCN(c2nc(C3=C(c4c[nH]c5ccccc45)C(=O)NC3=O)c3ccccc3n2)CC1` [SOTRASTAURIN] had an IC50 in test [2] of 0.0501 µM.

The values are drawn from ChEMBL document CHEMBL2417410, “Selectivity data: assessment, predictions, concordance, and implications” (J Med Chem, 2013).
